In US10112955B2, “Isoindoline, azaisoindoline, dihydroindenone and dihydroazaindenone inhibitors of Mnk1 and Mnk2” (eFFECTOR THERAPEUTICS, INC., priority 2015, dated 2018):

Tests used:
[1] = tested on: Phosphorylated eIF4E; assay: peIF4E Signaling Cellular Assay (CisBio peIF4E HTRF); assay type: cell-based; conditions: cells incubated with compound for 2 hrs at 37° C., 12-point curve
In short: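 Phospho-eIF4E measured by HTRF (665 and 620 nm ratio) after overnight antibody incubation of lysates from cells exposed 2 h at 37° C to 3-fold compound dilutions. IC50 fitted by nonlinear regression of percent inhibition.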

[2] = Pharmacokinetics, single oral gavage administration; assay type: in vivo; conditions: male Sprague Dawley rats, single oral gavage 10 mg/kg, N = 3/group (Cpd. 71 N = 2), formulation 10% NMP/90% PEG400 (Cpd. 57: 10% DMA/90% PEG300); for AUC(0-inf) / Cmax / Tmax / half-life: rat, plasma
Protocol: (§1) Groups of Balb/c mice or Sprague-Dawley rats (n≥3 per dose group) are administered single doses of test compound. Compounds are formulated either as solutions in 10% N-methylpyrrolidone, 90% polyethyleneglycol 400 or as suspensions in 0.5% methylcellulose in water for oral gavage administration at a nominal dose level of 10 mg/kg. Compounds are formulated in 10% dimethylisosorbide, 15% ethanol, 35% propylene glycol, and 40% saline (or 40% D5W) for intravenous administration at a nominal dose level of 1 mg/kg. For intravenously dosed animals, blood samples are collected at 0.083, 0.25, 0.5, 1, 2, 4, 8, and 24 h post dose. For orally dosed animals, blood samples are collected at 0.25, 0.5, 1, 2, 4, 8, and 24 h post dose. Blood samples are collected from mice either serially via submandibular vein (approximately 0.1 mL each) or terminally via cardiac puncture (approximately 0.5 mL each). Blood samples are collected serially from rats via jugular vein catheter (approximately 0.2 mL each). Each blood sample is collected into a tube that is chilled and contains potassium EDTA as the anticoagulant. Plasma is separated and stored at approximately −80 C until analysis. Following protein precipitation with acetonitrile containing an internal standard, plasma samples are analyzed using a liquid chromatography/high-resolution mass spectrometry (LC-HRMS) method to determine plasma concentrations. Plasma concentration versus time data are subjected to noncompartmental pharmacokinetic analysis using Phoenix™ Winnonlin® (Certara LP) to determine pharmacokinetic parameters, including Area Under the Curve (AUC), Clearance (Cl), Volume of Distribution at Steady-State (Vss), and terminal half-life (T1/2). Data from orally and intravenously dose are highlighted in Tables 3 and 4, respectively.

[3] = Pharmacokinetics, single intravenous bolus administration; assay type: in vivo; conditions: rat, plasma, male Sprague Dawley rats, single intravenous bolus 1 mg/kg, N = 3/group, formulation 10% NMP/15% EtOH/35% PEG400/40% D5W (Cpd. 57: 10% DMA/15% EtOH/35% PEG400/40% D5W); for half-life: read-out: T½ (converted); for Vd: read-out: Vss
Protocol: as §1, with “Compounds are formulated in 10% dimethylisosorbide, 15% ethanol, 35% propylene glycol, and 40% saline (or 40% D5W) for intravenous administration at a nominal dose level of 1 mg/kg.” left out

[4] = target: MNK2 (Homo sapiens (Human), UniProt Q9HBH9); assay: MNK Biochemical Enzymatic Assay (ADP-Glo), MNK2; conditions: 3 nM recombinant MNK2, 50 μM substrate peptide, 10 μM ATP
Protocol: Compounds are screened for MNK inhibition using the ADP-Glo kinase assay kit (Promega, catalogue No. V9101). All kinase reactions are performed in Reaction Buffer E (15 mM HEPES pH7.4, 20 mM NaCl, 1 mM EGTA, 10 mM MgCl2, 0.1 mg/ml BGG, and 0.02% Tween-20). […] Final DMSO concentration in each reaction is 1%.
Kinase reactions are carried out in 96-well half-area white flat-bottom polystyrene plates in a final volume of 25 μl. MNK1/2 enzymes are pre-incubated with compound and peptide substrate for 5 minutes prior to the addition of ATP. After the addition of ATP, kinase reactions are incubated at room temperature for 40 minutes. Reactions are subsequently stopped by the addition of 25 μl of ADP-Glo Reagent and incubating for an additional 40 minutes. The final luminescent signal used for kinase activity readout is produced by the addition of 45 μl of Kinase Detection Reagent (ADP-Glo kit, Promega) and incubating for 40 minutes.

Sequence of MNK2 (Q9HBH9 whole entry): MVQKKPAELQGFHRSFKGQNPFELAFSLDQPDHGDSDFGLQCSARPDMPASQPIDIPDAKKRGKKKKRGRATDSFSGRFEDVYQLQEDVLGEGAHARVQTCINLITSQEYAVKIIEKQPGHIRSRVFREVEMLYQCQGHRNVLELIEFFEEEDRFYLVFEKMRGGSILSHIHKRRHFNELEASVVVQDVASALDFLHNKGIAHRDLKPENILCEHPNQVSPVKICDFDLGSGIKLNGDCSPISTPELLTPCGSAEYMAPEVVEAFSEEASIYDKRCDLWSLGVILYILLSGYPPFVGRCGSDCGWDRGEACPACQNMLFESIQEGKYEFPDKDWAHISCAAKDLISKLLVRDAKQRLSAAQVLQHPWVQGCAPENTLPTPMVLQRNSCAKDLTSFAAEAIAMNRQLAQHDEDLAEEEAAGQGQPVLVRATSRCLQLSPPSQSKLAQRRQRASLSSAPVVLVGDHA

IC50 [1] [nM]	F [2] [%]	AUC(0-inf) [2] [ng·h/mL]	Cmax [2] [ng/mL]	Tmax [2] [h]	half-life [2] [h]	AUC(0-inf) [3] [ng·h/mL]	clearance [3] [mL/min/kg]	half-life [3] [h]	Vd [3] [L/kg]	IC50 [4] [nM]	Compound
< 50	25.0	2650	425	4	2.59	1060	16.6	7.34	6.56	10 to 100	Cc1cc(Nc2ncnc(N)c2C)cc2c1C(=O)NC21CCCCC1 [Cpd. No. 55, 6′-((6-amino-5-methylpyrimidin-4-yl)amino)-4′-methylspiro[cyclohexane-1,1′-isoindolin]-3′-one]
< 50	14.5	2490	584	0.833	3.27	1720	11.1	7.78	3.46	< 10	COc1c(N)ncnc1Nc1cc(C)c2c(c1)C1(CCCCC1)NC2=O [Cpd. No. 57, 6′-((6-amino-5-methoxypyrimidin-4-yl)amino)-4′-methylspiro[cyclohexane-1,1′-isoindolin]-3′-one]
